From ChEMBL document CHEMBL1687839, “ISAba825, a functional insertion sequence modulating genomic plasticity and bla(OXA-58) expression in Acinetobacter baumannii” (2011)
≈ marks a conversion by molar mass, not a printed value.

Experiments:
Type in all cases: functional
[1] = test system: Acinetobacter baumannii; experiment: Ratio of MIC for Acinetobacter baumannii ATCC 17978 harboring plasmid pWHP825 to MIC for Acinetobacter baumannii ATCC 17978 harboring plasmid 1266
[2] = test system: Acinetobacter baumannii; experiment: Antibacterial activity against Acinetobacter baumannii ATCC 17978 harboring plasmid directed expression of beta-lactamase OXA-58 under an ISAba825-ISAba3 hybrid and ISAba3-derived promoter sequence
[3] = test system: Acinetobacter baumannii; experiment: Antibacterial activity against Acinetobacter baumannii ATCC 17978 harboring plasmid 1266
[4] = test system: Acinetobacter baumannii; experiment: Antibacterial activity against Acinetobacter baumannii ATCC 17978 harboring plasmid directed expression of beta-lactamase OXA-58 under an ISAba3 promoter
[5] = test system: Acinetobacter baumannii; experiment: Antibacterial activity against Acinetobacter baumannii ATCC 17978
[6] = test system: Acinetobacter baumannii; experiment: Antibacterial activity against Acinetobacter baumannii ATCC 17978 harboring pAB880
[7] = test system: Acinetobacter baumannii; experiment: Antibacterial activity against Acinetobacter baumannii Ab880 overexpressing beta-lactamase OXA-58 under the control of ISAba825 insertion sequence

C[C@@H](O)[C@H]1C(=O)N2C(C(=O)O)=C(SCCNC=N)C[C@H]12 [IMIPENEM ANHYDROUS]
Ratio [1]: 128 | MIC [2]: 32 µg/mL (≈ 107 µM) | MIC [3]: 0.25 µg/mL (≈ 0.835 µM) | MIC [4]: 0.5 µg/mL (≈ 1.67 µM) | MIC [5]: 0.25 µg/mL (≈ 0.835 µM) | MIC [6]: 16 µg/mL (≈ 53.4 µM) | MIC [7]: 16 µg/mL (≈ 53.4 µM)

C[C@@H](O)[C@H]1C(=O)N2C(C(=O)O)=C(S[C@@H]3CN[C@H](C(=O)N(C)C)C3)[C@H](C)[C@H]12 [MEROPENEM]
Ratio [1]: 64 | MIC [2]: 16 µg/mL (≈ 41.7 µM) | MIC [3]: 0.25 µg/mL (≈ 0.652 µM) | MIC [4]: 0.5 µg/mL (≈ 1.3 µM) | MIC [5]: 0.25 µg/mL (≈ 0.652 µM) | MIC [6]: 8 µg/mL (≈ 20.9 µM) | MIC [7]: 16 µg/mL (≈ 41.7 µM)
